Results on three molecules are retold here after DBAASP.

Molecules are shown by their SMILES. Converted amounts (≈) assume the structure as drawn. “And” between values parts separate entries of the source, which are not always exact repeats. Equal values may be shown once.

Test systems include Candida sp.; Fusarium oxysporum; Streptococcus pyogenes; Staphylococcus aureus; Shigella sonnei; Shigella flexneri; Salmonella typhimurium; Escherichia coli; Campylobacter jejuni; Pseudomonas aeruginosa.
What all share (assay): ≥ marks a high value that may be exact or a test limit, other limits are often not marked, values filed in µg/mL are converted to µM
The test system of assay [1] is Escherichia coli 363 ATCC 11775.
Assay [2] deals with Vibrio metschnikovii NCTC 8483.
In assay [3] the test system is Staphylococcus aureus ATCC 25293.
The test system of assay [4] is Staphylococcus epidermidis ATCC 12228.
Assay [5] deals with Micrococcus luteus ATCC 4698.
Assay [6] concerns Salmonella enterica subsp. enterica serovar Newport.
Assay [7] deals with Vibrio alginolyticus ATCC 17749.
The subject of assay [8] is Bacillus megaterium ATCC 17749.
Assay [9] relates to Helicobacter pylori ATCC 43526.
For assay [10], the system named is Shigella flexneri ATCC 25875.
Assay [11] deals with Saccharomyces cerevisiae ATCC 24860.
Assay [12] relates to Staphylococcus aureus ATCC 29213.
Assay [13] has as its system Aspergillus niger ATCC 20611.
Assay [14] concerns Streptococcus pyogenes ATCC 10389.
The test system of assay [15] is Trichoderma viride ATCC 36316.
Assay [16] has as its system Escherichia coli ATCC 15224.
Assay [17] relates to Aspergillus fumigatus ATCC 16424.
In assay [18] the test system is Salmonella enterica subsp. enterica serovar Typhimurium ATCC 13311.
In assay [19] the test system is Shigella sonnei ATCC 25931.
For assay [20], the system named is Campylobacter jejuni ATCC 43051.
The subject of assay [21] is Aspergillus flavus ATCC 46283.
Assay [22] deals with Pseudomonas aeruginosa ATCC 90271.
Assay [23] relates to Candida albicans ATCC 32354.
For assay [24], the system named is Corynebacterium diphtheriae ATCC 8032.
The subject of assay [25] is Bacillus subtilis ATCC 1768.
The test system of assay [26] is Proteus vulgaris ATCC 6380.
For assay [27], the system named is Staphylococcus aureus ATCC 6538.
The test system of assay [28] is Streptococcus pyogenes 77A.
The test system of assay [29] is Escherichia coli ATCC 2592.
The test system of assay [30] is Micrococcus luteus ATCC 9341.
Assay [31] has as its system Staphylococcus aureus SG501.
For assay [32], the system named is Pseudomonas aeruginosa ATCC 9027.
For assay [33], the system named is Corynebacterium diphtheriae ATCC 8024.
Assay [34] relates to Micrococcus luteus ATCC 10240.
In assay [35] the test system is Candida albicans ATCC 36232.
The subject of assay [36] is Shigella flexneri ATCC 203.
Assay [37] deals with Bacillus subtilis ATCC 6633.
Assay [38] deals with Streptococcus pyogenes 308A.

Usually MIC stands for the lowest concentration that inhibits growth of the organism. A lower MIC goes with inhibition by little substance. For `CC(C)C[C@@H]1NC(=O)[C@H](CCCN=C(N)N)NC(=O)[C@H](Cc2cnc[nH]2)NC(=O)[C@H](Cc2c[nH]c3ccccc23)NC(=O)CNC(=O)CNC(=O)[C@@H](NC(=O)[C@H](Cc2ccc(O)cc2)NC(=O)CNC(=O)CNC(=O)[C@@H](N)CO)CSSC[C@@H](C(=O)N[C@H](C(=O)N[C@@H](CO)C(=O)N[C@@H](Cc2ccc(O)cc2)C(=O)N[C@@H](CCCN=C(N)N)C(=O)N[C@@H](CO)C(=O)NCC(=O)O)[C@@H](C)O)NC(=O)[C@H](CCCN=C(N)N)NC1=O` [SGGYCGGWHRLRCTSYRSG], the MIC in assay [1] is no less than 62 µM; in assay [2] it was no less than 75 µM; in [3] it was 17 µM (≈ 35.7 µg/mL); with Candida sp., 8 µM (≈ 16.8 µg/mL); in [4], 41 µM (≈ 86.2 µg/mL); in assay [5] it was 16 µM (≈ 33.6 µg/mL). Also, the MIC was 13 µM (≈ 27.3 µg/mL) with Fusarium oxysporum, no less than 75 µM in assay [6], no less than 75 µM in assay [7] and no less than 34 µM in assay [8].

With `CC[C@H](C)[C@H](NC(=O)CNC(=O)[C@H](CCC(N)=O)NC(=O)CNC(=O)[C@@H](NC(=O)[C@H](CCCCN)NC(=O)[C@H](CCC(=O)O)NC(=O)[C@@H](NC(=O)[C@H](CCCCN)NC(=O)[C@H](CCCCN)NC(=O)[C@H](Cc1ccccc1)NC(=O)[C@H](CC(C)C)NC(=O)[C@H](CCCCN)NC(=O)[C@H](Cc1c[nH]c2ccccc12)NC(=O)[C@@H](N)CCCCN)[C@@H](C)CC)C(C)C)C(=O)NCC(=O)N[C@@H](C)C(=O)N[C@H](C(=O)N[C@@H](CC(C)C)C(=O)N[C@@H](CCCCN)C(=O)N[C@H](C(=O)N[C@@H](CC(C)C)C(=O)N[C@H](C(=O)N[C@H](C(=O)NCC(=O)N[C@@H](CC(C)C)C(N)=O)[C@@H](C)O)[C@@H](C)O)C(C)C)C(C)C` [KWKLFKKIEKVGQGIGAVLKVLTTGL], the MIC was 2.7 µM (≈ 7.7 µg/mL) against Streptococcus pyogenes; 1.61 µM (≈ 4.6 µg/mL) in [9]; 1.47 µM (≈ 4.2 µg/mL) in [10]; 4.97 µM (≈ 14.2 µg/mL) in [11]; 3.01 µM (≈ 8.6 µg/mL) in the assay on Staphylococcus aureus; 2.56 µM (≈ 7.3 µg/mL) in assay [12]. Further, the MIC worked out at 3.15 µM (≈ 9 µg/mL) in assay [13]; 2.63 µM (≈ 7.5 µg/mL) in assay [14]; 4.62 µM (≈ 13.2 µg/mL) in assay [15]; 1.3 µM (≈ 3.7 µg/mL) in assay [16]; 1.65 µM (≈ 4.7 µg/mL) with Shigella sonnei; 3.68 µM (≈ 10.5 µg/mL) in assay [17]. Also, the MIC against Shigella flexneri was 1.65 µM (≈ 4.7 µg/mL); in assay [18] it was 1.72 µM (≈ 4.9 µg/mL); with Salmonella typhimurium, 1.54 µM (≈ 4.4 µg/mL); in [19] it was 1.58 µM (≈ 4.5 µg/mL); in assay [20], 1.4 µM (≈ 4 µg/mL); in assay [21], 3.71 µM (≈ 10.6 µg/mL). For the same molecule, the MIC against Escherichia coli was found to be 1.26 µM (≈ 3.6 µg/mL); in the assay on Campylobacter jejuni, 1.54 µM (≈ 4.4 µg/mL); in [22] it was 1.54 µM (≈ 4.4 µg/mL); in [23] it was 3.96 µM (≈ 11.3 µg/mL); with Pseudomonas aeruginosa, 1.33 µM (≈ 3.8 µg/mL).

Regarding `CC[C@H](C)[C@@H]1NC(=O)[C@H](CC(=O)O)NC(=O)[C@@H](NC(=O)[C@@H](NC(=O)[C@@H](N)C(C)C)[C@@H](C)O)CSSC[C@@H]2NC(=O)[C@H](Cc3ccc(O)cc3)NC(=O)CNC(=O)CNC(=O)[C@H](CO)NC(=O)[C@H](CCCN=C(N)N)NC(=O)CNC(=O)[C@H](CCCN=C(N)N)NC(=O)[C@H](Cc3ccccc3)NC(=O)[C@H](CC(C)C)NC(=O)[C@@H]3CSSC[C@@H](C(=O)N[C@@H](CCCN=C(N)N)C(=O)O)NC(=O)[C@H](C(C)C)NC(=O)[C@H](CSSC[C@H](NC(=O)[C@H](C)NC(=O)[C@H](C)NC(=O)[C@H](CC(=O)O)NC(=O)[C@H](CC(N)=O)NC(=O)[C@H](CC(C)C)NC(=O)[C@H](CCCCN)NC(=O)[C@H](C(C)C)NC(=O)CNC(=O)[C@H](CCCCN)NC(=O)[C@H](C)NC(=O)[C@H](CCC(=O)O)NC(=O)[C@H](C(C)C)NC(=O)[C@H](CO)NC(=O)[C@H](CC(C)C)NC1=O)C(=O)N[C@@H](C)C(=O)N[C@@H](C)C(=O)N[C@@H](Cc1cnc[nH]1)C(=O)N3)NC(=O)[C@H](C(C)C)NC(=O)[C@H](CCCN=C(N)N)NC(=O)[C@H](CCCCN)NC(=O)CNC(=O)[C@H](CC(N)=O)NC2=O` [VTCDILSVEAKGVKLNDAACAAHCLFRGRSGGYCNGKRVCVCR], the MIC in assay [24] amounted to 1.32 µM; in [25], 0.44 µM; in assay [26], 6.6 µM; in [27] it was 1.38 µM; in [28], 0.22 µM; in the assay with Staphylococcus aureus, 5.5 µM. Moreover, the MIC in assay [29] is 22 µM; in [30], 0.686 µM and 1.76 µM; in assay [4] it was 1.76 µM; in assay [31] it was 0.176 µM; in assay [32] it was greater than 22 µM; in assay [33], 1.76 µM. Also, the MIC in assay [34] was 1.1 µM; in assay [35], 22 µM; in [36] it was 6.6 µM; in assay [37], 0.22 µM; in [38], 0.352 µM.
